Legend:
[1] = system: alternative pathway (AP) hemolytic activity; assay: AP hemolysis inhibition assay; type: cell-based; conditions: Erythrocyte, 1 h; Normal Human Serum, chicken or rabbit erythrocytes, 60 min at 37° C., OD 414 nm
Procedure: The ability of the compounds disclosed herein to inhibit alternative pathway (AP) hemolytic activity was determined. Red blood cells (RBC), chicken or rabbit erythrocyctes (SbjBio), were washed three time using assay buffer containing 0.1% gelatin, 5 mM Veronal, 145 mM NaCl, 0.025% NaN3, 10 mM Mg-EGTA pH 7.3. In 100 μL reaction system, 1300 to 1500 ng/μL final concentration of Normal Human Serum (CompTech) was incubated with compound for 15 min at 37° C. Then 2×10^6 cells/well of chicken or rabbit erythrocytes in assay buffer were added and incubated for an additional 60 min at 37° C. Positive control (100% lysis) consists of serum and RBC, and negative control (0% lysis) consists of assay buffer and RBC only. Samples were centrifuged at 2000 g for 5 min, and supernatants collected. Optical density of the supernatant is monitored at 414 nm using Synergy 2 (BioTek). Percentage lysis in each sample is calculated relative to positive control (100% lysis).
Table 3 discloses the inhibitory activity of the compounds provided herein in the hemolysis assay.

[2] = biological target: T1, human complement factor D (Homo sapiens, UniProt P00746); assay: In vitro enzyme inhibition (Z-Lys-SBzl/DTNB absorbance assay); type: biochemical; conditions: Complement Factor D (R&D Systems), substrate Z-Lys-SBzl, A405 nm; read-out: CFD IC50
T1 construct: purchased R&D Systems 1824-SE
T1 sequence (P00746 26-253): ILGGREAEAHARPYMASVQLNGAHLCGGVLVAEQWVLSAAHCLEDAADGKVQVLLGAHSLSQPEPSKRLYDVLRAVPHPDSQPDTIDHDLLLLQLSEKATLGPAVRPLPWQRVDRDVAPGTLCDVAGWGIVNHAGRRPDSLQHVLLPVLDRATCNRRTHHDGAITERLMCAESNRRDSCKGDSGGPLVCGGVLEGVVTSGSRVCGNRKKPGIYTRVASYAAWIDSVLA
In short: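 Factor D (6.25 ng/μL before addition) preincubated 5 min RT with compound (8 points from 50 μM, 6-fold, 0.5% DMSO final) in 50 mM Tris/HCl pH 7.5, 1 M NaCl, then Z-Lys-SBzl/DTNB added (200 μM each before addition). A405 read kinetically every 30 s for 60 min; IC50 from variable-slope fit, controls with and without enzyme.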

| IC50 [2] [nM] | Structure (SMILES) | EC50 [1] [nM] |
| --- | --- | --- |
| 100 to 1000 | COC(=O)c1ccc2c(C(N)=O)nn(CC(=O)N3[C@@H]4CC[C@@H](C4)[C@H]3C(=O)Nc3cccc(Cl)n3)c2c1 [Example 122, methyl 3-carbamoyl-1-(2-((1R,3S,4S)-3-((6-chloropyridin-2-yl)carbamoyl)-2-azabicyclo[2.2.1]heptan-2-yl)-2-oxoethyl)-1H-indazole-6-carboxylate] | 100 to 1000 |
| 100 to 1000 | NC(=O)c1nn(CC(=O)N2[C@H](C(=O)Nc3cccc(Cl)n3)C[C@@H]3CCC[C@@H]32)c2ccc(F)cc12 [Example 169, 1-(2-((2S,3aS,6aS)-2-((6-chloropyridin-2-yl)carbamoyl)hexahydrocyclopenta[b]pyrrol-1(2H)-yl)-2-oxoethyl)-5-fluoro-1H-indazole-3-carboxamide] | 100 to 1000 |
| < 100 | NC(=O)c1nn(CC(=O)N2[C@@H]3CC[C@@H](C3)[C@H]2C(=O)Nc2cccc(Cl)n2)c2cc(F)ccc12 [Example 71, 1-(2-((1R,3S,4S)-3-((6-chloropyridin-2-yl)carbamoyl)-2-azabicyclo[2.2.1]heptan-2-yl)-2-oxoethyl)-6-fluoro-1H-indazole-3-carboxamide] | 100 to 1000 |
| < 100 | NC(=O)c1nn(CC(=O)N2CC[C@H]2C(=O)NCc2cccc(Cl)c2F)c2cnccc12 [Example 189, (S)-1-(2-(2-((3-chloro-2-fluorobenzyl)carbamoyl)azetidin-1-yl)-2-oxoethyl)-1H-pyrazolo[3,4-c]pyridine-3-carboxamide] | 100 to 1000 |
| 100 to 1000 | NC(=O)c1nn(CC(=O)N2[C@@H]3CC[C@@H](C3)[C@H]2C(=O)Nc2cccc(Cl)n2)c2cc(CO)ccc12 [Example 125, 1-(2-((1R,3S,4S)-3-((6-chloropyridin-2-yl)carbamoyl)-2-azabicyclo[2.2.1]heptan-2-yl)-2-oxoethyl)-6-(hydroxymethyl)-1H-indazole-3-carboxamide] | 100 to 1000 |
| < 100 | Cc1ccc2c(c1)c(C(N)=O)nn2CC(=O)N1[C@H](C(=O)Nc2cccc(Cl)n2)C[C@@H]2CCC[C@@H]21 [Example 168, 1-(2-((2S,3aS,6aS)-2-((6-chloropyridin-2-yl)carbamoyl)hexahydrocyclopenta[b]pyrrol-1(2H)-yl)-2-oxoethyl)-5-methy1-1H-indazole-3-carboxamide] | 100 to 1000 |
| 100 to 1000 | NC(=O)c1nn(CC(=O)N2C(C(=O)NCc3cccc(Cl)c3F)[C@@H]3C[C@@H](O)[C@H]2[C@H]3O)c2ccccc12 (stereo partly drawn) [Example 152, 1-(2-((1S,4S,6R,7S)-3-((3-chloro-2-fluorobenzyl)carbamoyl)-6,7-dihydroxy-2-azabicyclo[2.2.1]heptan-2-yl)-2-oxoethyl)-1H-indazole-3-carboxamide] | 100 to 1000 |
| 100 to 1000 | NC(=O)c1nn(CC(=O)N2C3CCC(C3)[C@H]2C(=O)Nc2cccc(Cl)n2)c2ccc(C3CC3)cc12 (stereo partly drawn) [Example 11, 1-(2-((3S)-3-((6-chloropyridin-2-yl)carbamoyl)-2-azabicyclo[2.2.1]heptan-2-yl)-2-oxoethyl)-5-cyclopropyl-1H-indazole-3-carboxamide] | 1000 to 10000 |
| < 100 | CC(=O)c1nn(CC(=O)N2[C@@H]3CC[C@@H](C3)[C@H]2C(=O)Nc2cccc(Cl)n2)c2ccccc12 [Example 80, (1R,3S,4S)-2-(2-(3-acetyl-1H-indazol-1-yl)acetyl)-N-(6-chloropyridin-2-yl)-2-azabicyclo[2.2.1]heptane-3-carboxamide] | 100 to 1000 |
| 100 to 1000 | NC(=O)c1nn(CC(=O)N2CCCC[C@H]2C(=O)Nc2cccc(Cl)n2)c2ccccc12 [Example 21, (S)-1-(2-(2-((6-chloropyridin-2-yl)carbamoyl)piperidin-1-yl)-2-oxoethyl)-1H-indazole-3-carboxamide] | 1000 to 10000 |
| < 100 | NC(=O)c1nn(CC(=O)N2[C@@H]3CC[C@@H](C3)[C@H]2C(=O)Nc2cc(C(=O)O)cc(Cl)n2)c2ccccc12 [Example 104, 2-((1R,3S,4S)-2-(2-(3-carbamoyl-1H-indazol-1-yl)acetyl)-2-azabicyclo[2.2.1]heptane-3-carboxamido)-6-chloroisonicotinic acid] | < 100 |
| 100 to 1000 | CC(=O)c1nn(CC(=O)N2[C@@H]3CC[C@@H](C3)[C@H]2C(=O)Nc2cccc(Cl)n2)c2cnccc12 [Example 66, (1R,3S,4S)-2-(2-(3-acetyl-1H-pyrazolo[3,4-c]pyridin-1-yl)acetyl)-N-(6-chloropyridin-2-yl)-2-azabicyclo[2.2.1]heptane-3-carboxamide] | 100 to 1000 |
| 100 to 1000 | NC(=O)c1nn(CC(=O)N2[C@@H]3CC[C@@H](C3)[C@H]2C(=O)Nc2cccc(Cl)n2)c2cc(N)ccc12 [Example 93, 6-amino-1-(2-((1R,3S,4S)-3-((6-chloropyridin-2-yl)carbamoyl)-2-azabicyclo[2.2.1]heptan-2-yl)-2-oxoethyl)-1H-indazole-3-carboxamide 2,2,2-trifluoroacetate] | 100 to 1000 |
| 100 to 1000 | NC(=O)c1nn(CC(=O)N2[C@H](C(=O)Nc3cccc(Cl)n3)C[C@@H]3CCC[C@@H]32)c2ccccc12 [Example 159, 1-(2-((2S,3aS,6aS)-2-((6-chloropyridin-2-yl)carbamoyl)hexahydrocyclopenta[b]pyrrol-1(2H)-yl)-2-oxoethyl)-1H-indazole-3-carboxamide] | 100 to 1000 |
| 100 to 1000 | Cc1cc(Cl)nc(NC(=O)[C@@H]2[C@H]3CC[C@H](C3)N2C(=O)Cn2nc(C(N)=O)c3ccccc32)c1 [Example 77, 1-(2-((1R,3S,4S)-3-((6-chloro-4-methylpyridin-2-yl)carbamoyl)-2-azabicyclo[2.2.1]heptan-2-yl)-2-oxoethyl)-1H-indazole-3-carboxamide] | 100 to 1000 |
| < 100 | NC(=O)c1nn(CC(=O)N2CC[C@H]2C(=O)NCc2cccc(Cl)c2F)c2ccccc12 [Example 185, (S)-1-(2-(2-((3-chloro-2-fluorobenzyl)carbamoyl)azetidin-1-yl)-2-oxoethyl)-1H-indazole-3-carboxamide] | < 100 |
| 100 to 1000 | NC(=O)c1nn(CC(=O)N2[C@@H]3CC[C@@H](C3)[C@H]2C(=O)NCc2cccc(Cl)c2F)c2ccccc12 [Example 38, 1-(2-((1R,3S,4S)-3-((3-chloro-2-fluorobenzyl)carbamoyl)-2-azabicyclo[2.2.1]heptan-2-yl)-2-oxoethyl)-1H-indazole-3-carboxamide] | 1000 to 10000 |
| < 100 | NC(=O)c1nn(CC(=O)N2[C@@H]3CC[C@@H](C3)[C@H]2C(=O)Nc2cncc(Cl)n2)c2ccccc12 [Example 59, 1-(2-((1R,3S,4S)-3-((6-chloropyrazin-2-yl)carbamoyl)-2-azabicyclo[2.2.1]heptan-2-yl)-2-oxoethyl)-1H-indazole-3-carboxamide] | 100 to 1000 |

| Structure (SMILES) | IC50 [2] [nM] | EC50 [1] [nM] |
| --- | --- | --- |
| NC(=O)c1nn(CC(=O)N2C3CCC(C3)[C@H]2C(=O)Nc2cccc(Cl)n2)c2ccccc12 (stereo partly drawn) [Example 10, 1-(2-((3S)-3-((6-chloropyridin-2-yl)carbamoyl)-2-azabicyclo[2.2.1]heptan-2-yl)-2-oxoethyl)-1H-indazole-3-carboxamide] | < 100 | 100 to 1000 |
| COc1ccc(Cl)nc1NC(=O)[C@@H]1[C@H]2CC[C@H](C2)N1C(=O)Cn1nc(C(N)=O)c2ccccc21 [Example 96, 1-(2-((1R,3S,4S)-3-((6-chloro-3-methoxypyridin-2-yl)carbamoyl)-2-azabicyclo[2.2.1]heptan-2-yl)-2-oxoethyl)-1H-indazole-3-carboxamide] | < 100 | < 100 |
| NC(=O)c1nn(CC(=O)N2[C@@H]3CC[C@@H](C3)[C@H]2C(=O)Nc2cccc(Cl)n2)c2ccccc12 [Example 1, 1-(2-((1R,3S,4S)-3-((6-chloropyridin-2-yl)carbamoyl)-2-azabicyclo[2.2.1]heptan-2-yl)-2-oxoethyl)-1H-indazole-3-carboxamide] | < 100 | 100 to 1000 |

Reference: patent US20190127366A1 (LifeSci Pharmaceuticals, Inc., priority 2015, published 2019)
